Laboratory results: ChEMBL document CHEMBL1275501, “Plasmid-mediated quinolone resistance pump QepA2 in an Escherichia coli isolate from France” (2008)
In brackets after ≈: the same amount, converted by molar mass.

Assays:
[1] = tested on: Escherichia coli; assay: Antimicrobial activity against azide-resistant Escherichia coli J53 harboring pCTX-M plasmid carrying blaCTX-M-15 gene by disk diffusion method; type: functional
[2] = tested on: Escherichia coli; assay: Antimicrobial activity against Escherichia coli TOP10 by disk diffusion method; type: functional
[3] = tested on: Escherichia coli; assay: Antimicrobial activity against azide-resistant Escherichia coli J53 harboring pCTX-M carrying blaCTX-M-15 and pQep plasmid carrying qepA2 gene by disk diffusion method; type: functional
[4] = tested on: Escherichia coli; assay: Antimicrobial activity against Escherichia coli TOP10 harboring pQep plasmid carrying qepA2 gene by disk diffusion method; type: functional
[5] = tested on: Escherichia coli; assay: Antimicrobial activity against Escherichia coli BicA expressing blaTEM-1, blaCTX-M-15 and qepA2 gene by disk diffusion method
[6] = tested on: Escherichia coli; assay: Antimicrobial activity against azide-resistant Escherichia coli J53 by disk diffusion method; type: functional

CO/N=C(\C(=O)N[C@@H]1C(=O)N2C(C(=O)O)=C(COC(C)=O)CS[C@H]12)c1csc(N)n1 [CEFOTAXIME]
MIC [1]: > 32 µg/mL
MIC [2]: 0.06 µg/mL (≈ 0.132 µM)
MIC [3]: > 32 µg/mL
MIC [4]: 0.06 µg/mL (≈ 0.132 µM)
MIC [5]: > 32 µg/mL
MIC [6]: 0.06 µg/mL (≈ 0.132 µM)

CC(=O)OCC1=C(C(=O)O)N2C(=O)[C@@H](NC(=O)Cc3cccs3)[C@H]2SC1 [CEPHALOTHIN]
MIC [1]: > 256 µg/mL
MIC [2]: 4 µg/mL (≈ 10.1 µM)
MIC [3]: > 256 µg/mL
MIC [4]: 8 µg/mL (≈ 20.2 µM)
MIC [5]: > 256 µg/mL
MIC [6]: 8 µg/mL (≈ 20.2 µM)

CCn1cc(C(=O)O)c(=O)c2cc(F)c(N3CCNCC3)cc21 [NORFLOXACIN]
MIC [1]: 0.06 µg/mL (≈ 0.188 µM)
MIC [2]: 0.03 µg/mL (≈ 0.0939 µM)
MIC [3]: 1 µg/mL (≈ 3.13 µM)
MIC [4]: 0.5 µg/mL (≈ 1.57 µM)
MIC [5]: > 256 µg/mL
MIC [6]: 0.06 µg/mL (≈ 0.188 µM)

CO/N=C(\C(=O)N[C@@H]1C(=O)N2C(C(=O)[O-])=C(C[N+]3(C)CCCC3)CS[C@H]12)c1csc(N)n1
MIC [1]: 16 µg/mL (≈ 33.3 µM)
MIC [3]: 16 µg/mL (≈ 33.3 µM)
MIC [4]: 0.12 µg/mL (≈ 0.25 µM)
MIC [5]: > 32 µg/mL
MIC [6]: 0.01 µg/mL (≈ 0.0208 µM)

NC[C@H]1O[C@H](O[C@H]2[C@H](O)[C@@H](O[C@H]3O[C@H](CO)[C@@H](O)[C@H](N)[C@H]3O)[C@H](N)C[C@@H]2N)[C@H](N)C[C@@H]1O [TOBRAMYCIN]
MIC [1]: 0.25 µg/mL (≈ 0.535 µM)
MIC [2]: 0.5 µg/mL (≈ 1.07 µM)
MIC [3]: 0.25 µg/mL (≈ 0.535 µM)
MIC [4]: 0.5 µg/mL (≈ 1.07 µM)
MIC [5]: 0.5 µg/mL (≈ 1.07 µM)
MIC [6]: 0.12 µg/mL (≈ 0.257 µM)

O=C(O)c1cn(C2CC2)c2cc(N3CCNCC3)c(F)cc2c1=O [CIPROFLOXACIN]
MIC [5]: > 32 µg/mL

CC1(C)S[C@@H]2[C@H](NC(=O)[C@H](C(=O)O)c3ccsc3)C(=O)N2[C@H]1C(=O)O [TICARCILLIN]
MIC [1]: > 256 µg/mL
MIC [2]: 4 µg/mL (≈ 10.4 µM)
MIC [3]: > 256 µg/mL
MIC [4]: > 256 µg/mL
MIC [5]: > 256 µg/mL
MIC [6]: 4 µg/mL (≈ 10.4 µM)

COc1c(N2C[C@@H]3CCCN[C@@H]3C2)c(F)cc2c(=O)c(C(=O)O)cn(C3CC3)c12 [MOXIFLOXACIN]
MIC [2]: 0.004 µg/mL (≈ 0.00996 µM)
MIC [3]: 0.12 µg/mL (≈ 0.299 µM)
MIC [4]: 0.01 µg/mL (≈ 0.0249 µM)
MIC [5]: > 32 µg/mL

CCN1CCN(c2cc3c(cc2F)c(=O)c(C(=O)O)cn3C2CC2)CC1 [ENROFLOXACIN]
MIC [1]: 0.06 µg/mL (≈ 0.167 µM)
MIC [2]: 0.003 µg/mL (≈ 0.00835 µM)
MIC [3]: 0.06 µg/mL (≈ 0.167 µM)
MIC [4]: 0.008 µg/mL (≈ 0.0223 µM)
MIC [5]: > 32 µg/mL
MIC [6]: 0.03 µg/mL (≈ 0.0835 µM)

GENTAMICIN
MIC [1]: 0.12 µg/mL
MIC [2]: 0.25 µg/mL
MIC [3]: 0.12 µg/mL
MIC [4]: 0.25 µg/mL
MIC [6]: 0.12 µg/mL

C[C@H]1[C@H](NC(=O)/C(=N\OC(C)(C)C(=O)O)c2csc(N)n2)C(=O)N1S(=O)(=O)O [AZTREONAM]
MIC [1]: 16 µg/mL (≈ 36.7 µM)
MIC [3]: 16 µg/mL (≈ 36.7 µM)
MIC [5]: > 32 µg/mL

O=C(N[C@H](CO)[C@H](O)c1ccc([N+](=O)[O-])cc1)C(Cl)Cl [CHLORAMPHENICOL]
MIC [1]: 8 µg/mL (≈ 24.8 µM)
MIC [2]: 4 µg/mL (≈ 12.4 µM)
MIC [3]: > 256 µg/mL
MIC [4]: > 256 µg/mL
MIC [5]: > 256 µg/mL
MIC [6]: 8 µg/mL (≈ 24.8 µM)

CCn1cc(C(=O)O)c(=O)c2cc(F)c(N3CCN(C)CC3)cc21 [PEFLOXACIN]
MIC [1]: 0.06 µg/mL (≈ 0.18 µM)
MIC [2]: 0.03 µg/mL (≈ 0.09 µM)
MIC [3]: 0.06 µg/mL (≈ 0.18 µM)
MIC [5]: > 32 µg/mL
MIC [6]: 0.06 µg/mL (≈ 0.18 µM)
